{"source": "patent US6225478A", "about": "“Iridoid derivatives and neovascularization inhibitors containing the same as active ingredient” (Tsumura & Co., priority 1999, dated 2001)", "key": {"[1]": {"test_system": "human umbilical-vein endothelial cells (HUVEC)", "assay": "Tube Formation Assay (TFA) Test, HUVEC in collagen gel", "type": "cell-based", "conditions": "Tables 75-83, 0.32 mM sample solution, method as for Compounds 1 through 60; for inhibition at 320 µM (stock): Homo sapiens, HUVEC, read-out: TFA Inhibition rate (%)", "method_in_brief": "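Inhibition rate (%) of tube formation is computed from tube lengths against control (+) and control (-), measured after 20 h at 37 °C in M-199 with 20% FCS, 30 ng/ml b-FGF and 0.1 μM PMA. Samples were applied to HUVEC on collagen and covered by a second collagen layer (double-layer gel).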"}, "[2]": {"test_system": "HUFEC", "assay": "Cell Migration Assay (CMA) Test, inhibitory rate with control (-) correction", "type": "cell-based, human", "conditions": "125 μl of 0.32 mM sample solution in 4.0 ml medium, 80% or more = remarkable; for inhibition at 320 µM (stock): Homo sapiens, 24 h", "method_in_brief": "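Confluent HUFEC monolayers were scratch-wounded, then cultured 24 h at 37 °C, 5% CO2 in M199 (2+) medium with compound added as 125 μl of a 0.32 mM solution (3.2% DMSO) per 4 ml. Giemsa-stained cells migrating into 1 mm×1 mm blocks counted; inhibition % calculated relative to control (+) and control (−) wells.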"}}}
{"smiles": "COC(=O)C1=CO[C@@H](OC(=O)Nc2ccc(Br)cc2)[C@@H]2C(C)=CC[C@H]12", "note": "[I-159]", "values": [{"measurement": "inhibition at 320 µM (stock)", "setting": "[1]", "value": 9.8, "unit": "%"}, {"measurement": "inhibition at 320 µM (stock)", "setting": "[2]", "value": 39.5, "unit": "%"}]}
{"smiles": "CCOC(=O)C1=COC(OC(=O)NC)C2C1CC1OC12CO", "note": "(stereo not drawn) [I-279]", "values": [{"measurement": "inhibition at 320 µM (stock)", "setting": "[1]", "value": 13.2, "unit": "%"}, {"measurement": "inhibition at 320 µM (stock)", "setting": "[2]", "value": 45.1, "unit": "%"}]}
{"smiles": "COC(=O)C1=CO[C@@H](OC(=O)NCCN(C)C)[C@@H]2C(C)=CC[C@H]12", "note": "[I-117]", "values": [{"measurement": "inhibition at 320 µM (stock)", "setting": "[1]", "value": 26.8, "unit": "%"}, {"measurement": "inhibition at 320 µM (stock)", "setting": "[2]", "value": 28.1, "unit": "%"}]}
{"smiles": "C=CCNC(=O)O[C@@H]1OC=C(C(=O)OC)[C@H]2CC[C@H](C)[C@@H]12", "note": "[I-228]", "values": [{"measurement": "inhibition at 320 µM (stock)", "setting": "[1]", "value": 2.7, "unit": "%"}, {"measurement": "inhibition at 320 µM (stock)", "setting": "[2]", "value": 7.2, "unit": "%"}]}
{"smiles": "CCN(CCO)C(=O)O[C@@H]1OC=C(C(=O)OC)[C@H]2CC=C(C)[C@@H]12", "note": "[I-97]", "values": [{"measurement": "inhibition at 320 µM (stock)", "setting": "[1]", "value": 29.1, "unit": "%"}, {"measurement": "inhibition at 320 µM (stock)", "setting": "[2]", "value": 7.7, "unit": "%"}]}
{"smiles": "COC(=O)C1=CO[C@@H](OC(=O)NCc2ccc(OC(F)(F)F)cc2)[C@@H]2C(C)=CC[C@H]12", "note": "[I-106]", "values": [{"measurement": "inhibition at 320 µM (stock)", "setting": "[1]", "value": 26.8, "unit": "%"}, {"measurement": "inhibition at 320 µM (stock)", "setting": "[2]", "value": 6.7, "unit": "%"}]}
{"smiles": "COC(=O)C1=CO[C@@H](OC(=O)Nc2cccc(C(F)(F)F)c2)[C@@H]2C(C)=CC[C@H]12", "note": "[I-160]", "values": [{"measurement": "inhibition at 320 µM (stock)", "setting": "[1]", "value": 13.8, "unit": "%"}, {"measurement": "inhibition at 320 µM (stock)", "setting": "[2]", "value": 6.3, "unit": "%"}]}
{"smiles": "CONC(=O)O[C@@H]1OC=C(C(=O)OC)[C@H]2CC[C@H](C)[C@@H]12", "note": "[I-238]", "values": [{"measurement": "inhibition at 320 µM (stock)", "setting": "[1]", "value": 17.8, "unit": "%"}, {"measurement": "inhibition at 320 µM (stock)", "setting": "[2]", "value": 5.9, "unit": "%"}]}
{"smiles": "COCCCNC(=O)O[C@@H]1OC=C(C(=O)OC)[C@H]2CC[C@H](C)[C@@H]12", "note": "[I-226]", "values": [{"measurement": "inhibition at 320 µM (stock)", "setting": "[1]", "value": 15.3, "unit": "%"}, {"measurement": "inhibition at 320 µM (stock)", "setting": "[2]", "value": 17.2, "unit": "%"}]}
{"smiles": "CNC(=O)O[C@@H]1OC=C(C(=O)N2CCN(CCO)CC2)[C@H]2CC[C@@H](C)[C@@H]12", "note": "[I-282]", "values": [{"measurement": "inhibition at 320 µM (stock)", "setting": "[1]", "value": 6, "unit": "%"}, {"measurement": "inhibition at 320 µM (stock)", "setting": "[2]", "value": 5.8, "unit": "%"}]}
{"smiles": "COC(=O)C1=CO[C@@H](OC(=O)NCCSCc2ccccc2)[C@@H]2C(C)=CC[C@H]12", "note": "[I-150]", "values": [{"measurement": "inhibition at 320 µM (stock)", "setting": "[1]", "value": 32.3, "unit": "%"}, {"measurement": "inhibition at 320 µM (stock)", "setting": "[2]", "value": 5.4, "unit": "%"}]}
{"smiles": "COC(=O)C1=CO[C@@H](OC(=O)Nc2cccc(C(F)(F)F)c2)[C@H]2[C@@H]1CC[C@@H]2C", "note": "[I-277]", "values": [{"measurement": "inhibition at 320 µM (stock)", "setting": "[1]", "value": 84.4, "unit": "%"}, {"measurement": "inhibition at 320 µM (stock)", "setting": "[2]", "value": 12.7, "unit": "%"}]}
{"smiles": "COC(=O)C1=CO[C@@H](OC(=O)NC(C)C)[C@@H]2C(C)=CC[C@H]12", "note": "[I-155]", "values": [{"measurement": "inhibition at 320 µM (stock)", "setting": "[1]", "value": 45.7, "unit": "%"}, {"measurement": "inhibition at 320 µM (stock)", "setting": "[2]", "value": 19.9, "unit": "%"}]}
{"smiles": "CNC(=O)O[C@@H]1OC=C(C(=O)O)[C@H]2CC=C(C)[C@@H]12", "note": "[I-313]", "values": [{"measurement": "TFA (inhibition rate, %)", "setting": "[1]", "value": 27.0, "unit": "%"}, {"measurement": "CMA Inhibition rate (%)", "setting": "[2]; 24 hours", "value": 60.2, "unit": "%"}]}
{"smiles": "COC(=O)C1=CO[C@@H](OC(=O)NCCc2cccc(F)c2)[C@H]2[C@@H]1CC[C@@H]2C", "note": "[I-205]", "values": [{"measurement": "inhibition at 320 µM (stock)", "setting": "[1]", "value": 2, "unit": "%"}, {"measurement": "inhibition at 320 µM (stock)", "setting": "[2]", "value": 8.7, "unit": "%"}]}
